Experimental data published in the NIST ThermoML archive (doi:10.1016/j.jct.2019.07.003).
Numbers after ± are expanded uncertainties.

Conditions: Crystal; DTA

| Normal melting temperature | Structure (SMILES) |
| --- | --- |
| 645 ± 1 °C | [Cl-].[Cs+] [cesium chloride] |
| 844 ± 1 °C | [F-].[Li+] [lithium fluoride] |
